We go through 45 molecules from patent publication US9776972B2, “Pyrazole derivatives as arginine methyltransferase inhibitors and uses thereof” (priority 2013, dated 2017).

The target of one test is T1, human PRMT1 (Homo sapiens, UniProt Q99873).
T1 construct: GST-tagged PRMT1; made in house; host or cells: High Five insect cells (baculovirus)
Put plainly: PRMT1 Biochemical Assay (3H-SAM Flashplate, peptide substrate). The gist of the method: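 GST-tagged PRMT1 from baculovirus-infected cells, preincubated with compounds 30 min at room temperature in 20 mM Bicine pH 7.6, 1 mM TCEP, 0.005% BSG, 0.002% Tween 20. Reaction started with ³H-SAM plus biotinylated peptide, stopped with 300 µM cold SAM.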

For the next test, the target named is T2, human PRMT6 (Homo sapiens, UniProt Q96LA8).
T2 construct: Flag-PRMT6-His; made in house; host or cells: HEK 293F cells (BacMam baculovirus)
T2 sequence (Q96LA8 with tags, fused parts or gaps): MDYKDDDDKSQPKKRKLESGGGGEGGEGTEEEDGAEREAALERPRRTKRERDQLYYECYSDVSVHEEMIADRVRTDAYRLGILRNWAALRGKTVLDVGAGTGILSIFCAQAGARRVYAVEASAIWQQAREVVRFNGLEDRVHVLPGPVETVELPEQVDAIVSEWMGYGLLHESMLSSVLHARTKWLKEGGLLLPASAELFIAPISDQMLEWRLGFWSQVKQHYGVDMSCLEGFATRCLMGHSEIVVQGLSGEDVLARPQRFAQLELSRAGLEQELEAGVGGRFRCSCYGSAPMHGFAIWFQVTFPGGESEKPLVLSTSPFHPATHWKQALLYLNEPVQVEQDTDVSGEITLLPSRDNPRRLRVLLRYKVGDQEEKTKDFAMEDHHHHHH
Put plainly: PRMT6 Biochemical Assay (3H-SAM Flashplate, peptide substrate). Put shortly:
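Flag-PRMT6-His, expressed in mammalian cells from a BacMam vector, was preincubated with compound for 30 min at room temperature in Bicine pH 7.6 buffer with TCEP, BSG and Tween 20. Reactions were started with ³H-SAM and a biotinylated histone H4 36-50 peptide, then stopped with cold SAM (400 uM final). Labeled peptide was captured on streptavidin Flashplates, counted, and fitted to a 3- or 4-parameter curve.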

Where [1] appears, read: single experiment or average of multiple experiments.
The mark [2] stands for this setting: Biochemical IC50 PRMT6, single experiment or average of multiple experiments.

pIC50: −log10 of the molar value. Where a name gives a salt, the structure may show the parent alone. Read-outs that look alike come from different tables or passages of the source. Some results are limits rather than exact numbers.

T1 sequence (Q99873 with tags, fused parts or gaps): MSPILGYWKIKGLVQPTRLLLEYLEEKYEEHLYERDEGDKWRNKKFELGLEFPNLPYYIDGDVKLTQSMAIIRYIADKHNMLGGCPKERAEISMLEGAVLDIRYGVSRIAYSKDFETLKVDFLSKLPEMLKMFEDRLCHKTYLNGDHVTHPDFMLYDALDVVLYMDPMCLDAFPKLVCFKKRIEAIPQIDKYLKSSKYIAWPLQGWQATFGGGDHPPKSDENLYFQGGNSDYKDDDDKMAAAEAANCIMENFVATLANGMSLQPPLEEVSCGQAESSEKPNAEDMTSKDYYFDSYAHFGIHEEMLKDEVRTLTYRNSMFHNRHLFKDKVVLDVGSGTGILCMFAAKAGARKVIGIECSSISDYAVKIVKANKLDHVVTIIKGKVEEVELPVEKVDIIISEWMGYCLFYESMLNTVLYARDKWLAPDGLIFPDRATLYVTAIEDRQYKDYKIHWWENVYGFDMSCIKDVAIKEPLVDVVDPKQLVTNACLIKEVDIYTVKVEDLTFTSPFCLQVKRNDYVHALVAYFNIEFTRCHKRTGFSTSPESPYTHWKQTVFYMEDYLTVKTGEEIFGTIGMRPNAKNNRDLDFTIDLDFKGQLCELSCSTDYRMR

As to `CNCCN(C)Cc1c[nH]nc1-c1ccc(OC2CC2)c(F)c1` [Compound 301], the pIC50 against human PRMT1 is greater than 7.00; against human PRMT1 (setting [1]), 8.19; on human PRMT6 (Biochemical IC50 PRMT6) it was greater than 7.00; at human PRMT6 (setting [2]), 7.60.

Take `COc1cc(Cl)cc(-c2n[nH]cc2CN(C)CCN)c1` [Compound 127]: the pIC50 against human PRMT1 (setting [1]) was 7.34; at human PRMT6 (setting [2]) it was 7.85.

Consider `CNCCN(C)Cc1c[nH]nc1-c1ccc(OCC2CCC2)cc1` [Compound 307], for which the pIC50 is greater than 7.00 at human PRMT1, 8.23 against human PRMT1 (setting [1]), greater than 7.00 on human PRMT6 (Biochemical IC50 PRMT6) and 7.71 against human PRMT6 (setting [2]).

As to `CNCCN(C)Cc1c[nH]nc1-c1ccc(OC2CCC2)c(F)c1` [Compound 305], the pIC50 on human PRMT1 is greater than 7.00; against human PRMT1 (setting [1]), 8.20; at human PRMT6 (Biochemical IC50 PRMT6) it was greater than 7.00; on human PRMT6 (setting [2]) it was 7.56.

For `CCNC(=O)c1ccc(-c2n[nH]cc2CN(C)CCN)cc1` [Compound 136], the results for the pIC50 on human PRMT1 (setting [1]) and on human PRMT6 (setting [2]) were 7.56 and 7.89, respectively.

For the molecule `CNCCN(C)Cc1c[nH]nc1-c1ccc(C(C)(C)COC)cc1` [Compound 313], the pIC50 at human PRMT1 was greater than 7.00; on human PRMT1 (setting [1]) it was 7.46; against human PRMT6 (Biochemical IC50 PRMT6), 6.00 to 7.00; against human PRMT6 (setting [2]), 6.95.

For `CNCCN(C)Cc1c[nH]nc1-c1ccc(OC2CC(OC)C2)cc1` (centres unmarked) [Compound 315], the pIC50 is greater than 7.00 against human PRMT1, 7.63 against human PRMT1 (setting [1]), greater than 7.00 at human PRMT6 (Biochemical IC50 PRMT6) and 7.97 against human PRMT6 (setting [2]).

Regarding `COc1cc(-c2n[nH]cc2CN(C)CCN)ccc1F` [Compound 142], the pIC50 is 7.53 against human PRMT1 (setting [1]) and 7.79 at human PRMT6 (setting [2]).

Regarding `COc1cccc(-c2n[nH]cc2CN(C)CCN)c1` [Compound 130], the pIC50 is 6.87 at human PRMT1 (setting [1]) and 7.20 on human PRMT6 (setting [2]).

In the case of `CCn1ncc(CN(C)CCNC)c1-c1ccc(F)cc1` [Compound 7], the results for the pIC50 against human PRMT1 (setting [1]) and against human PRMT6 (setting [2]) were 6.58 and 7.42, respectively.

As for `CNCCN(C)Cc1c[nH]nc1-c1ccc(OCC2CCOC2)cc1` (centres unmarked) [Compound 285], the pIC50 at human PRMT1 is greater than 7.00; at human PRMT1 (setting [1]), 7.83; against human PRMT6 (Biochemical IC50 PRMT6) it was greater than 7.00; against human PRMT6 (setting [2]), 7.48.

Regarding `CC(=O)c1cccc(-c2n[nH]cc2CN(C)CCN)c1` [Compound 112], the pIC50 is 7.09 at human PRMT1 (setting [1]) and 7.07 at human PRMT6 (setting [2]).

On to `CNCCN(C)Cc1c[nH]nc1-c1ccc(OC2COC2)cc1` [Compound 283], for which the pIC50 against human PRMT1 was greater than 7.00; against human PRMT1 (setting [1]), 8.18; at human PRMT6 (Biochemical IC50 PRMT6), greater than 7.00; against human PRMT6 (setting [2]), 7.59.

As for `CNCCN(C)Cc1c[nH]nc1-c1ccc(OCCOC)cc1` [Compound 289], the pIC50 against human PRMT1 was greater than 7.00; against human PRMT1 (setting [1]) it was 7.67; on human PRMT6 (Biochemical IC50 PRMT6), greater than 7.00; against human PRMT6 (setting [2]) it was 7.44.

Turning to `CN(CCN)Cc1n[nH]cc1-c1ccc(OC2CC2)cc1` [Compound 119], the figures for the pIC50 against human PRMT1 (setting [1]) and on human PRMT6 (setting [2]) were 7.79 and 7.06, respectively.

`CCC(COC)Oc1ccc(-c2n[nH]cc2CN(C)CCNC)cc1` (centres unmarked) [Compound 310]: the pIC50 on human PRMT1 is greater than 7.00; against human PRMT1 (setting [1]), 7.84; on human PRMT6 (Biochemical IC50 PRMT6), greater than 7.00; at human PRMT6 (setting [2]), 7.49.

For the molecule `COc1ccc(-c2n[nH]cc2CN(C)CCN)cc1F` [Compound 134], the pIC50 on human PRMT1 (setting [1]) and on human PRMT6 (setting [2]) was 7.97 each time.

Take `Cc1ccc(-c2n[nH]cc2CN(C)CCN)c(F)c1` [Compound 108]: the pIC50 is 7.50 against human PRMT1 (setting [1]) and 8.02 at human PRMT6 (setting [2]).

Take `CN(CCN)Cc1c[nH]nc1-c1ccc(C(F)(F)F)c(Cl)c1` [Compound 117]: the pIC50 against human PRMT1 (setting [1]) was 8.24; at human PRMT6 (setting [2]), 8.31.

Take `CN(CCN)Cc1c[nH]nc1-c1cc(F)cc(F)c1` [Compound 111]: the pIC50 on human PRMT1 (setting [1]) was 7.72; against human PRMT6 (setting [2]), 7.93.

As to `Cc1cccc(-c2n[nH]cc2CN(C)CCN)c1` [Compound 131], the pIC50 at human PRMT1 (setting [1]) is 7.53; against human PRMT6 (setting [2]), 7.92.

With `CNCCN(C)Cc1c[nH]nc1-c1ccc(Oc2cncnc2)cc1` [Compound 303], the pIC50 against human PRMT1 is greater than 7.00; on human PRMT1 (setting [1]), 7.55; against human PRMT6 (Biochemical IC50 PRMT6) it was greater than 7.00; against human PRMT6 (setting [2]), 7.62.

Take `CNCCN(C)Cc1c[nH]nc1-c1ccc(OC(COC)CC(C)C)cc1` (centres unmarked) [Compound 314]: the pIC50 against human PRMT1 was greater than 7.00; at human PRMT1 (setting [1]), 7.74; against human PRMT6 (Biochemical IC50 PRMT6), greater than 7.00; against human PRMT6 (setting [2]), 7.41.

For `CN(CCN)Cc1c[nH]nc1-c1ccc(C(F)(F)F)cc1Cl` [Compound 135], the figures for the pIC50 against human PRMT1 (setting [1]) and at human PRMT6 (setting [2]) were 7.32 and 7.54, respectively.

For `CN(CCN)Cc1n[nH]cc1-c1ccc(C(F)(F)F)cc1` [Compound 103], the pIC50 against human PRMT1 (setting [1]) is 7.99; against human PRMT6 (setting [2]), 7.77.

In the case of `CN(CCN)Cc1c[nH]nc1-c1ccc(OCC(F)(F)F)cc1` [Compound 96], the figures for the pIC50 against human PRMT1 (setting [1]) and at human PRMT6 (setting [2]) were 8.36 and 8.15, respectively.

Turning to `COc1ccc(-c2n[nH]cc2CN(C)CCN)cc1Cl` [Compound 125], the pIC50 is 8.08 on human PRMT1 (setting [1]) and 8.18 against human PRMT6 (setting [2]).

As for `CN(CCN)Cc1n[nH]cc1-c1ccc(C2CC2)cc1` [Compound 104], the figures for the negative logarithm of the IC50 (pIC50) on human PRMT1 (setting [1]) and against human PRMT6 (setting [2]) were 7.81 and 7.34, respectively.

On to `CN(CCN)Cc1n[nH]cc1-c1ccc(OC(F)(F)F)cc1` [Compound 105], for which the pIC50 against human PRMT1 (setting [1]) was 8.05; against human PRMT6 (setting [2]) it was 7.26.

For `CCn1cc(CN(C)CCNC)c(-c2ccc(F)cc2)n1` [Compound 8], the pIC50 was 5.93 against human PRMT1 (setting [1]) and 6.54 at human PRMT6 (setting [2]).

In the case of `CNCCN(C)Cc1c[nH]nc1-c1ccc(Oc2ncccn2)cc1` [Compound 302], the pIC50 against human PRMT1 was greater than 7.00; on human PRMT1 (setting [1]), 7.48; at human PRMT6 (Biochemical IC50 PRMT6), greater than 7.00; at human PRMT6 (setting [2]) it was 7.30.

Consider `CNCCN(C)Cc1c[nH]nc1-c1ccc(OC2CC2)cc1` [Compound 293], for which the pIC50 at human PRMT1 is greater than 7.00; against human PRMT1 (setting [1]) it was 7.87; on human PRMT6 (Biochemical IC50 PRMT6), greater than 7.00; against human PRMT6 (setting [2]), 7.54.

As to `CNCCN(C)Cc1c[nH]nc1-c1ccc(OC(CO)C(C)C)cc1` (centres unmarked) [Compound 286], the pIC50 against human PRMT1 is greater than 7.00; against human PRMT1 (setting [1]) it was 7.58; against human PRMT6 (Biochemical IC50 PRMT6), greater than 7.00; at human PRMT6 (single experiment or average of multiple experiments, read-out: Biochemical IC50 PRMT6), 7.49.

As to `CN(CCN)Cc1n[nH]cc1-c1ccc(OC(F)F)cc1` [Compound 138], the values for the pIC50 against human PRMT1 (setting [1]) and against human PRMT6 (setting [2]) were 7.67 and 7.35, respectively.

As for `CN(CCN)Cc1c[nH]nc1-c1cc(F)cc(Cl)c1` [Compound 121], the pIC50 on human PRMT1 (setting [1]) is 7.97; against human PRMT6 (setting [2]), 8.13.

Consider `CN(CCN)Cc1c[nH]nc1-c1ccccc1C#N` [Compound 140], for which the pIC50 against human PRMT1 (setting [1]) is 6.40; at human PRMT6 (setting [2]), 5.52.

Turning to `CC(C)Oc1ccc(-c2c[nH]nc2CN(C)CCN)cc1F` [Compound 144], the pIC50 against human PRMT1 (setting [1]) is 8.24; at human PRMT6 (setting [2]) it was 7.31.

`CNCCN(C)Cc1c[nH]nc1-c1ccc(OC2CCC(O)CC2)cc1` (centres unmarked) [Compound 299]: the pIC50 on human PRMT1 was greater than 7.00; on human PRMT1 (setting [1]) it was 7.70; at human PRMT6 (Biochemical IC50 PRMT6), greater than 7.00; on human PRMT6 (setting [2]), 7.80.

Regarding `CNCCN(C)Cc1c[nH]nc1-c1ccc(OC2CCC2)cc1` [Compound 304], the pIC50 was greater than 7.00 at human PRMT1, 8.18 at human PRMT1 (setting [1]), greater than 7.00 on human PRMT6 (Biochemical IC50 PRMT6) and 7.62 at human PRMT6 (setting [2]).

For `CN(CCN)Cc1c[nH]nc1-c1ccc(OC2CC2)cc1` [Compound 114], the pIC50 against human PRMT1 (setting [1]) is 8.24; at human PRMT6 (setting [2]) it was 7.79.

`CN(CCN)Cc1c[nH]nc1-c1ccc(F)c(Cl)c1` [Compound 124]: the pIC50 is 7.86 against human PRMT1 (setting [1]) and 8.15 at human PRMT6 (setting [2]).

Turning to `CN(CCN)Cc1n[nH]cc1-c1ccc(C#N)cc1` [Compound 100], the pIC50 against human PRMT1 (setting [1]) is 7.92; against human PRMT6 (setting [2]) it was 7.95.

With `CC[C@H](C)Oc1ccc(-c2n[nH]cc2CN(C)CCNC)cc1` [Compound 309], the pIC50 against human PRMT1 is greater than 7.00; at human PRMT1 (setting [1]), 8.17; against human PRMT6 (Biochemical IC50 PRMT6), greater than 7.00; against human PRMT6 (setting [2]) it was 7.82.

In the case of `CNCCN(C)Cc1cnn(C)c1-c1ccc(OC(C)C)cc1` [Compound 244, hydrochloride], the pIC50 was greater than 7.00 at human PRMT1, 8.06 on human PRMT1 (setting [1]), greater than 7.00 against human PRMT6 (Biochemical IC50 PRMT6) and 7.35 against human PRMT6 (setting [2]).

`CNCCN(C)Cc1c[nH]nc1-c1ccc(OC(COC)COC)cc1` [Compound 316]: the negative-log IC50 (pIC50) was greater than 7.00 against human PRMT1, 7.76 on human PRMT1 (setting [1]), greater than 7.00 on human PRMT6 (Biochemical IC50 PRMT6) and 7.01 at human PRMT6 (setting [2]).

As a reminder, the pIC50 is the IC50 on a negative log10 scale, so that one unit is a factor of ten.
